Measurements from patent US7144912B2, “Pyrrole-type compounds, compositions, and methods for treating cancer, treating viral diseases and causing immunosuppression” (Gemin X Biotechnologies Inc., priority 2001, dated 2006).

Assays:
[1] = tested on: C33A cervical carcinoma cells; assay: caspase activation in lysates of treated cells (apoptosis); format: cell-based; conditions: C33A cancer cell line; 16 hr incubation; positive = 1.5-fold (150%) of dimethyl sulfoxide control
Description: (§1) H1299 non-small cell lung carcinoma cells, C33A cervical carcinoma cells, Mrc-5 normal lung fibroblasts (American Type Culture Collection, Manassas, Va. USA) and HMEC normal mammary epithelial cells (Clonetics San Diego, Calif., USA) were maintained in media recommended by the American Type Culture Collection. Cells were harvested and suspended at 2.5–5×10^5 cells/ml in media. A 45 μL aliquot of cell suspension was added to each well of a 96-well microtiter plate (PerkinElmer Life Sciences Inc, Boston, Mass. USA). Cells were incubated overnight in a 5% CO2-95% humidity incubator at 37° C. and then, 5 μL of a 10% dimethyl sulfoxide (Sigma-Aldrich Inc., St. Louis, Mo. USA) solution containing various concentrations of Compound 79 or 5 μL of 10% dimethyl sulfoxide (solvent control) were added. The plates were further incubated for 16 hr. […]
(§2) The reaction was then filtered using Sephadex G-10 Poly-Prep chromatography column (Amersham Biosciences, Inc, Piscataway, N.J., USA). […] The number of radioactive counts per minute (cpm) in each well of the sample plate was measured using a liquid scintillation counter (PerkinElmer Life Sciences Inc, Boston, Mass. USA). The potency of caspase cascade activation was determined by the percentage increase in cpm in wells compared to cells treated only with dimethyl sulfoxide.

[2] = tested on: H1299 non-small cell lung carcinoma cells; assay: as above; format: cell-based; conditions: H1299 cancer cell line; 16 hr incubation; positive = 1.5-fold (150%) of dimethyl sulfoxide control
Description: as §1, §2

## COC1=CC(c2ccc[nH]2)=N/C1=C/c1cc2ccccc2[nH]1 [Compound 79, 4-methoxy-5-(1H-indol-2yl-methylene)-2,2′-bi-1H-pyrrole]
[1]
  Concentration Required for Positive Caspase Activation: 125 µM
[2]
  Concentration Required for Positive Caspase Activation: 250 µM
